The source of these data is patent publication US20260286322A1, “PROTEIN TYROSINE P[…] DOMAIN PEPTIDE DIMER FOR NERVOUS SYSTEM REPAIR” (NervGen Pharma Corp., priority 2023, published 2026).

The subject of experiment [1] is rat model of thoracic traumatic Spinal Cord Injury (SCI). As to the kind of experiment: Bladder function, bladder score and urinary complications in SCI rats. In kind it is in vivo. The protocol:
(§1) Lyophilized Compound 8 was dissolved in saline and injected s.c. at a volume of 500 μl to animal once daily from day 1-day 49 post spinal cord injury.
The dose concentration was 0.8 mg/ml, corresponding to 400 μg/rat. After reconstitutions, the solution was aliquoted and kept at −20° C. until dosing.
Spinal cord injury (SCI) was introduced to the rats by surgery using the Infinite Horizon (IH) Impactor (200 kDyn force) described by Scheff et al. 2003. The surgery was performed with aseptic procedures in a designated area under deep anesthesia. Rats were anesthetized with isoflurane (4% for induction, 2% for maintenance), and O2 (300 cm^3/min) mixture. Hair was removed from the surgical site with clippers and the skin wase scrubbed with an antiseptic detergent. To maintain body temperature the animals were placed upon a homoeothermic blanket system. The T8 Vertebra of the rat was located externally, and an incision was made exposing the vertebral column from T6-T11. A laminectomy was performed using a surgical microscope to expose the dorsal spinal cord at the thoracic (T8) vertebral level. The vertebral column was stabilized by clamping the nearest rostral and caudal vertebral processes and the injury was produced using the IH impactor device at a 200 kDyn force. After each lesion the IH graphs and impact data were reviewed and recorded, rats presenting an impact force more than 10% higher or lower than expected and/or any abnormality on the force/displacement impact graphs were excluded from the study. Additionally, animals scoring more than 1 points in the Basso, Beattie and Bresnahan (BBB) score scale at 1 days after SCI were excluded for the study as well.
Starting the day after lesion animals were observed twice a day and bladders were manually expressed using gentle abdominal pressure. Any abnormal appearance of the urine (i.e. cloudy urine, bloody urine) was recorded, and the size of the bladder estimated by trained researchers in order to obtain a categorical score (bladder score) (empty bladders=0; extra-small bladders=1; small bladders=2, medium bladders=3, large bladders=4). Urinary complications (bloody urine, foul-smelling urine, urine-stained fur) were reported and treated with SC fluids twice a day, and antibiotic treatment if the issues persisted. Bladder expression continue until spontaneous voiding was observed (empty bladder for 3 consecutive days).
During bladder expressions the size of each bladder was estimated by trained researchers and a semi-quantitative score was obtained. Daily estimates of urine retention were obtained by adding the bladder size scores of AM and PM bladder expressions. FIG. 5 illustrates the weekly average of urine retention in the rats in the testing group that were treated with Compound 8 in saline, compared to the rats in control group that were treated with vehicle control (saline).
Urinary complications including bloody urine, foul-smelling urine, and urine-stained fur were monitored. When a new complication was observed after resolutions of a previous event, it was considered repetitive. Animals would be euthanized if the complications persisted after an additional cycle of antibiotics, when bladders could not be expressed or when general health deterioration was observed.
Urinary complications, such as repetitive bloody urine, urine-stained fur and urinary infections were observed, recorded, and treated, as needed.
In this study, the effects of Compound 8 in improving the recovery of open field locomotor performance and bladder function in the SCI rats were further evaluated in comparison with Compound 4 by assessing the BBB scores and bladder scores according to the methods described in Example 3.
In this assessment, 12-13 rats were included in each of the following groups (1) Control group 1: SCI+saline alone; (2) Control group 2: SCI+Compound 4 in saline; (3) Testing group: SCI+Compound 8. […]

For experiment [2], the system named is animal model of spinal cord injury (SCI rats). As to the kind of experiment: Recovery of occasional and frequent walking, inverse Kaplan-Meier on BBB thresholds. In kind it is in vivo, rat. As to the method: Adult, female Lewis rats (~160 g on arrival) from Envigo were used as the subjects receiving the treatment in the study. The rats were assigned unique identification numbers (PGI ID and tail marks) and housed in ventilated cages. All rats were examined, handled, and weighed prior to initiation of the study to assure adequate health and suitability. During the course of the study, 12/12 light/dark cycles were maintained. The room temperature was maintained between […] and 23° C. with a relative humidity maintained around 50%. Chow and water were provided adlibitum for the duration of the study. The rats were randomly assigned across treatment groups. Body weights were taken twice a week during the study.
Spinal cord injury (SCI) was introduced to the animals and post-operative care was followed after the injury according to the methods described in Example 3.
as §1
The target dose concentration was 0.8 mg/ml. After reconstitutions, the solution was aliquoted and kept at −20° C. until dosing.
12-13 rats were used in each of the following two groups: • 1) Control group: SCI+Saline • 2) Testing group: SCI+Compound 8 in Saline.
Inverse Kaplan-Meier graphs were generated based on the Basso, Beattie & Bresnaham (BBB) open field locomotor assessment described above in Example 3. […]
Recover occasional walking: Occasional walking is defined as less than or equal to half of the attempted steps are successful, corresponding to a BBB score of 10. The week post-SCI in which an animal achieved a 10 or above was recorded and plotted on the Kaplan Meier graph, as defined above.
Recover frequent walking: Frequent walking is defined as greater than half of the attempted steps are successful and corresponds to a BBB score of 11. The week post-SCI in which an animal achieved an 11 or above was recorded and plotted on the Kaplan Meier graph, as defined above.
Statistical methods: Kaplan Meier curves were analyzed using the log-rank test. Effects of Compound 4 and Compound 8 on the locomotor function and bladder function were assessed for statistical significance by repeated measures ANOVA (RM-ANOVA) with Geisser-Greenhouse correction for non-sphericity of data and Tukey correction for multiple comparisons or by nonparametric Friedman's test with Dunn's multiple comparison correction. The choice of RM ANOVA or Friedman's test for the analysis of each type of data (BBB scores, BBB subscores, and bladder scores) was determined by the normality of data distribution tests performed for each of the functional scores across all treatment cohorts. […]

“TAT-Cys-rodent PTPRS wedge domain homodimer [Compound 8]”: the “average weekly bladder scores compared with Compound 4 or saline alone” value in experiment [1] (RM ANOVA, Tukey, p=0.0001 vs saline, p=0.0085 vs Compound 4) was “significantly lower”. Besides, in experiment [1] (during the course of the study), the “Euthanasia due to Urinary Complications” value is recorded as “none”, the “Repetitive Urinary Complications (animals)” value is listed as 1 out of 13, the “Repetitive Urinary Complications (percentage)” value is 8% and the “Urinary Complications (animals)” value was 4 out of 13. The “Urinary Complications (percentage)” value in experiment [1] (during the course of the study) turned out to be 31%. Moreover, in experiment [1] (during weeks 10 to 13), the “percentage of rats with bladder scores of 2 or better” value was “more than 40%”. Also, in experiment [1] (evident from week 8 to 13), the “estimated size of bladders” value is “decrease in the estimated size of bladders”. In experiment [1] (starting on week 6 post-SCI), the “percentage of rats with bladder scores of 2 or better” value was “About 25%”. Further, the “frequency of urinary complications compared with vehicle control” value in experiment [1] (vs rats receiving vehicle control) was “less frequent”. Further, the “urine retention (weekly average of estimated bladder size scores)” value in experiment [1] (vs vehicle control, trend noticeable starting at week 4 after SCI) is on record as “less urine retention”. For the same substance, the “time at which recovery of frequent walking was first detected” value in experiment [2] (post injury) was “after three weeks post injury”. Also, the “time at which recovery of occasional walking reached 50%” value in experiment [2] (post-SCI) is given as “less than 6 week”. Besides, the “recovery of frequent walking (BBB score of 11 or above), accumulated percent of group” value in experiment [2] (week 12 post-SCI) is listed as roughly 50%. For the same substance, the “recovery of occasional walking (BBB score of 10 or above), accumulated percent of group” value in experiment [2] (week 12 post-SCI, 0.8 mg/ml, 500 μl s.c. once daily day 1-49) is roughly 80%.
